Results from patent US9204653B2, “5-fluoro pyrimidine derivatives” (DOW AGROSCIENCES LLC, priority 2008, dated 2015).
Where two headings read alike, the source gives them in different places.

System: Mycosphaerella graminicola; Anamorph: Septoria tritici; Bayer Code SEPTTR
Experiment: Leaf blotch of wheat, foliar fungicide treatment, one day protectant (1DP) or three day curative (3DC)
Assay type: in vivo, Septoria tritici on wheat plants (variety Yuma)
Details: Zymoseptoria tritici; for pest or weed control at 25 ppm / pest or weed control at 100 ppm: rating of percent disease control; for pest or weed control at 50 ppm / pest or weed control at 200 ppm: % disease control rating, one day protectant
[1] = 24 h, one day protectant (1DP), read-out: SETTTR 1DP 25 ppm
[2] = 24 h, one day protectant (1DP), read-out: SEPTTR 1DP 100 ppm
[3] = 72 h, three day curative (3DC), read-out: SEPTTR 3DC 25 ppm
[4] = 72 h, three day curative (3DC), read-out: SEPTTR 3DC 100 ppm

SMILES	pest or weed control at 25 ppm [1] [%]	pest or weed control at 100 ppm [2] [%]	pest or weed control at 25 ppm [3] [%]	pest or weed control at 100 ppm [4] [%]	pest or weed control at 50 ppm (24 h) [%]	pest or weed control at 200 ppm (24 h) [%]
Nc1nc(OCCCc2ccncc2)ncc1F [Compound 768]	0 to 25	26 to 50	0 to 25	26 to 50	–	–
COc1ccc(COc2ncc(F)c(NC(=S)Nc3ccccc3F)n2)cc1F [Compound 769]	51 to 75	76 to 100	0 to 25	76 to 100	–	–
COc1cccc(COc2ncc(F)c(NC(C)=S)n2)c1 [Compound 770]	76 to 100	76 to 100	76 to 100	76 to 100	–	–
CC(Oc1ncc(F)c(NC(=O)OCc2ccccc2)n1)c1ccc(F)cc1 (stereo not shown) [Compound 771]	76 to 100	76 to 100	76 to 100	76 to 100	–	–
Cc1nc(C)c(COc2ncc(F)c(N)n2)s1 [Compound 772]	76 to 100	76 to 100	76 to 100	76 to 100	–	–
COc1cccc(COc2ncc(F)c(NC(=O)Cc3ccccc3)n2)c1 [Compound 773]	26 to 50	76 to 100	0 to 25	0 to 25	–	–
CCCCCCOc1ncc(F)c(NC(=O)Nc2ccsc2)n1 [Compound 774]	0 to 25	0 to 25	0 to 25	0 to 25	–	–
CC(C)(C)NNc1nc(OCc2ccc(F)cc2)ncc1F [Compound 775]	0 to 25	0 to 25	0 to 25	0 to 25	–	–
CCCNC(=O)Nc1nc(OCc2cccs2)ncc1F [Compound 776]	0 to 25	0 to 25	0 to 25	0 to 25	–	–
Cc1ccc(COc2ncc(F)c(NC(=S)Nc3ccccc3F)n2)cc1 [Compound 778]	76 to 100	76 to 100	76 to 100	76 to 100	–	–
OCNc1nc(OCc2cccc(F)c2)ncc1F [Compound 780]	76 to 100	76 to 100	76 to 100	76 to 100	–	–
N#Cc1cccc(COc2ncc(F)c(NC(=S)Nc3ccccc3F)n2)c1 [Compound 781]	0 to 25	51 to 75	0 to 25	26 to 50	–	–
CCOC(=O)COC(=O)Nc1nc(OCc2cccc(C#N)c2)ncc1F [Compound 782]	0 to 25	26 to 50	26 to 50	76 to 100	–	–
CC(C)Oc1ccc(COc2ncc(F)c(N)n2)cc1 [Compound 783]	76 to 100	76 to 100	76 to 100	76 to 100	–	–
CNc1nc(OCc2ccc(F)cc2)ncc1F [Compound 784]	0 to 25	0 to 25	0 to 25	0 to 25	–	–
COc1cc(F)cc(F)c1COc1ncc(F)c(N)n1 [Compound 787]	76 to 100	76 to 100	76 to 100	76 to 100	–	–
CC(C)COC(=O)Oc1ncc(F)c(/N=C/N(C)C)n1 [Compound 788]	76 to 100	76 to 100	76 to 100	76 to 100	–	–
CN(C)/C=N/c1nc(OC(=O)OCc2ccccc2Cl)ncc1F [Compound 789]	76 to 100	76 to 100	76 to 100	76 to 100	–	–
CCCCOc1cccc(C(C)Oc2ncc(F)c(N)n2)c1 (stereo not shown) [Compound 790]	76 to 100	76 to 100	76 to 100	76 to 100	–	–
O=C(Cc1ccccc1)Nc1nc(OCc2ccccc2)ncc1F [Compound 792]	76 to 100	76 to 100	26 to 50	51 to 75	–	–
CC(C)C(=O)NNc1nc(OCc2ccc(F)cc2)ncc1F [Compound 793]	0 to 25	0 to 25	0 to 25	0 to 25	–	–
COc1cccc(COc2ncc(F)c(N)n2)c1F [Compound 794]	76 to 100	76 to 100	76 to 100	76 to 100	–	–
Fc1ccc(COc2ncc(F)c(/N=C/N3CCOCC3)n2)cc1 [Compound 795]	76 to 100	76 to 100	76 to 100	76 to 100	–	–
COc1c(F)cc(F)cc1COc1ncc(F)c(N)n1 [Compound 796]	76 to 100	76 to 100	76 to 100	76 to 100	–	–
COc1ccccc1COc1ncc(F)c(NC(=S)NCc2ccccc2F)n1 [Compound 797]	51 to 75	76 to 100	26 to 50	76 to 100	–	–
CC(Oc1ncc(F)c(N)n1)c1cccc(I)c1 (stereo not shown) [Compound 798]	76 to 100	76 to 100	76 to 100	76 to 100	–	–
O=C(Nc1ccccc1F)Nc1nc(OCc2cccs2)ncc1F [Compound 799]	0 to 25	0 to 25	0 to 25	0 to 25	–	–
CC(C)(C)OCCOc1ncc(F)c(N)n1 [Compound 802]	0 to 25	0 to 25	0 to 25	0 to 25	–	–

SMILES	pest or weed control at 25 ppm [1] [%]	pest or weed control at 100 ppm [2] [%]	pest or weed control at 25 ppm [3] [%]	pest or weed control at 100 ppm [4] [%]	pest or weed control at 50 ppm (24 h) [%]	pest or weed control at 200 ppm (24 h) [%]
Fc1ccccc1CNc1nc(OC2CCCCC2)ncc1F [Compound 803]	–	–	–	–	0 to 25	51 to 75
Fc1ccc(COc2ncc(F)c(NCCc3ccccc3)n2)cc1 [Compound 805]	–	–	–	–	51 to 75	76 to 100
Fc1cnc(OCc2cccc(C(F)(F)F)c2)nc1NCc1cccs1 [Compound 806]	–	–	–	–	–	76 to 100
Fc1cnc(OCc2ccccc2Cl)nc1NC1CC1 [Compound 807]	–	–	–	–	–	76 to 100
Fc1cnc(OCc2ccc(Cl)cc2)nc1NCc1cccs1 [Compound 808]	–	–	–	–	76 to 100	76 to 100
Fc1ccccc1CNc1nc(OCc2ccccc2F)ncc1F [Compound 809]	–	–	–	–	51 to 75	76 to 100
Fc1cnc(OCc2ccccc2Cl)nc1NCc1cccs1 [Compound 810]	–	–	–	–	–	76 to 100
Fc1cnc(OCc2ccc(C(F)(F)F)cc2)nc1NCc1ccc(Cl)cc1 [Compound 811]	–	–	–	–	76 to 100	76 to 100
COc1cccc(COc2ncc(F)c(NC3CC3)n2)c1 [Compound 812]	–	–	–	–	–	76 to 100
Fc1cnc(OCc2cccc(C(F)(F)F)c2)nc1NCc1ccc(Cl)cc1 [Compound 813]	–	–	–	–	76 to 100	76 to 100
Fc1cnc(OCc2cc(Cl)cc(Cl)c2)nc1NCc1cccs1 [Compound 814]	–	–	–	–	–	76 to 100
CC(=O)Nc1nc(OCc2cccc(Oc3ccccc3)c2)ncc1F [Compound 815]	–	–	–	–	76 to 100	76 to 100
Fc1cnc(OCc2ccc(Cl)cc2)nc1NCc1ccc(Cl)cc1 [Compound 816]	–	–	–	–	76 to 100	76 to 100
Fc1ccccc1CNc1nc(OCc2ccco2)ncc1F [Compound 817]	–	–	–	–	26 to 50	76 to 100
Cc1cnc(CNc2nc(OCC(F)(F)F)ncc2F)cn1 [Compound 818]	–	–	–	–	0 to 25	0 to 25
Fc1cnc(OCc2ccc(C(F)(F)F)cc2)nc1NC1CC1 [Compound 819]	–	–	–	–	–	76 to 100
Fc1cccc(COc2ncc(F)c(NCc3ccc(Cl)cc3)n2)c1 [Compound 820]	–	–	–	–	26 to 50	76 to 100
COc1ccccc1COc1ncc(F)c(NC2CC2)n1 [Compound 821]	–	–	–	–	–	76 to 100
Cc1cnc(CNc2nc(OCc3cccs3)ncc2F)cn1 [Compound 822]	–	–	–	–	26 to 50	76 to 100
COc1ccc(COc2ncc(F)c(NC3CC3)n2)cc1 [Compound 823]	–	–	–	–	–	76 to 100
Fc1cccc(COc2ncc(F)c(NCc3ccccc3F)n2)c1 [Compound 824]	–	–	–	–	76 to 100	76 to 100
Fc1ccc(COc2ncc(F)c(NCc3ccccc3F)n2)cc1F [Compound 825]	–	–	–	–	51 to 75	76 to 100
Fc1cnc(OCc2cccc(C(F)(F)F)c2)nc1NC1CC1 [Compound 826]	–	–	–	–	–	76 to 100
Fc1cnc(OCc2ccco2)nc1NCCc1ccccc1 [Compound 827]	–	–	–	–	0 to 25	26 to 50
Fc1cnc(OCCc2ccccc2)nc1N1CCOCC1 [Compound 828]	–	–	–	–	0 to 25	0 to 25
Fc1cnc(OCc2ccc(OC(F)(F)F)cc2)nc1NCc1ccc(Cl)cc1 [Compound 829]	–	–	–	–	26 to 50	76 to 100
Fc1cnc(OCC(F)(F)F)nc1NCc1cccs1 [Compound 830]	–	–	–	–	0 to 25	0 to 25
